Key:
Assay in all cases: drug sensitivity score (DSS3, normalised partial AUC of % inhibition dose-response) (DSS (score)); higher = more sensitive (stronger inhibition of viability); extreme values may be limits of the assay
[1] = system: FMOC02_2 (patient-derived low-grade serous ovarian cancer cells); conditions: 72 h; library: FO5A; assay format: 2D, 384-well, CellTiter-Glo
In short: (§1)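 On 384-well flat clear-bottom plates carrying compounds at five concentrations across a 10,000-fold range, patient-derived ovarian cancer cells below passage 10 were incubated for 72 h at 37 °C with 5% CO2. CellTiter-Glo readout of viability was processed in Breeze. A higher drug sensitivity score, defined as the partial area under the percent-inhibition dose-response curve divided by the log of the upper asymptote, means greater sensitivity.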

[2] = system: FMOC25_1 (patient-derived low-grade serous ovarian cancer cells); conditions: 72 h; library: FO4B; assay format: 2D, 384-well, CellTiter-Glo
In short: as §1

[3] = system: FMOC22 (patient-derived mucinous ovarian cancer cells); conditions: 72 h; library: FO5A; assay format: 2D, 384-well, CellTiter-Glo
In short: as §1

[4] = system: FMOC25_2 (patient-derived low-grade serous ovarian cancer cells); conditions: 72 h; library: FO5A; assay format: 2D, 384-well, CellTiter-Glo
In short: as §1

[5] = system: FMOC02_3 (patient-derived low-grade serous ovarian cancer cells); conditions: 72 h; library: FO5A; assay format: 2D, 384-well, CellTiter-Glo
In short: as §1

[6] = system: FMOC09 (patient-derived high-grade serous ovarian cancer cells); conditions: 72 h; library: FO5A; assay format: 2D, 384-well, CellTiter-Glo
In short: as §1

[7] = system: FMOC24 (patient-derived high-grade serous ovarian cancer cells); conditions: 72 h; library: FO5A; assay format: 2D, 384-well, CellTiter-Glo
In short: as §1

[8] = system: FMOC14 (patient-derived high-grade serous ovarian cancer cells); conditions: 72 h; library: FO5A; assay format: 2D, 384-well, CellTiter-Glo
In short: as §1

[9] = system: FMOC03 (patient-derived mucinous ovarian cancer cells); conditions: 72 h; library: FO5A; assay format: 2D, 384-well, CellTiter-Glo
In short: as §1

[10] = system: FMOC06 (patient-derived mucinous ovarian cancer cells); conditions: 72 h; library: FO5A; assay format: 2D, 384-well, CellTiter-Glo
In short: as §1

Compound | drug sensitivity score [1] | drug sensitivity score [2] | drug sensitivity score [3] | drug sensitivity score [4] | drug sensitivity score [5] | drug sensitivity score [6] | drug sensitivity score [7] | drug sensitivity score [8] | drug sensitivity score [9] | drug sensitivity score [10]
Cc1ncc(-c2ccnc(Nc3ccc(S(C)(=O)=O)cc3)n2)n1C(C)C [AZD-5438] | 12.4 | 8.1 | 7 | 12.8 | 15.2 | 3.4 | 13.6 | 9.7 | 7.5 | 8.2
C#Cc1cccc(Nc2ncnc3cc(OCCOC)c(OCCOC)cc23)c1 [Erlotinib] | 15.7 | 11.7 | 1.8 | 14.1 | 15.1 | 11 | 3.6 | 3.7 | 14.7 | 3
N.N.[Cl][Pt][Cl] [Cisplatin] | 9.2 | 7.3 | 6.3 | 6 | 9.1 | 16.6 | 18.6 | 3.7 | 4 | 6
Cc1cnc(Nc2ccc(OCCN3CCCC3)cc2)nc1Nc1cccc(S(=O)(=O)NC(C)(C)C)c1 [Fedratinib] | 10.4 | 5.7 | 2.3 | 11.3 | 12.2 | 5.1 | 6.9 | 1.7 | 3.2 | 2.8
C1=N/C2=N/c3ccc(OCCN4CCCC4)c(c3)COC/C=C/COCc3cccc(c3)C(=C1)N2 [Pacritinib] | 10.1 | 7.8 | 6.2 | 15.2 | 15.2 | 5.5 | 7.95 | 5.2 | 6.7 | 7.6
CNc1ncc2cc(-c3cc(NC(=O)NCCC(C)(C)C)c(F)cc3C)c(C)nc2n1 | 12.5 | 11.1 | 9.3 | 14.8 | 16.9 | 9.5 | 1.7 | 1.3 | 12 | 11.8
Cc1cc(OCc2nnc(SC3CCCC3)n2-c2cccnc2)ccc1-c1ccc(S(C)(=O)=O)cc1 [NMS-873] | 8.3 | 8.9 | 8.8 | 9.6 | 10 | 5.3 | 9.15 | 9.2 | 9 | 8
C[C@@H]1COC(Nc2ccc3ncnc(Nc4ccc(OCc5nccs5)c(Cl)c4)c3c2)=N1 [Varlitinib] | 12.5 | 8.3 | 0.1 | 5.1 | 6.3 | 6.5 | 0.5 | 0.5 | 9 | 0.3
COc1c(C)cnc(Cn2cnc3c(Cl)nc(N)nc32)c1C [BIIB021] | 16.9 | 13 | 11.7 | 15.5 | 21.1 | 13.7 | 10.7 | 13.2 | 17.2 | 10
O=C(c1ccc(F)c(F)c1Nc1ccc(I)cc1F)N1CC(O)([C@@H]2CCCCN2)C1 [Cobimetinib] | 13.3 | 10 | 7.5 | 9.2 | 13.7 | 6.1 | 1.8 | 0.1 | 10.3 | 9
Nc1ccn([C@@H]2O[C@H](CO)[C@@H](O)C2(F)F)c(=O)n1 [Gemcitabine] | 16.3 | 7.6 | 12.7 | 14.6 | 17.3 | 10.5 | 6 | 0 | 2.9 | 5.4
COc1cc2c(cc1-c1c(C)noc1C)ncc1[nH]c(=O)n([C@H](C)c3ccccn3)c12 [I-BET151] | 10.1 | 4.5 | 5.1 | 7.8 | 11.3 | 4.5 | 7.05 | 1.3 | 6.6 | 4.7
COc1cc(Nc2c(C#N)cnc3cc(OCCCN4CCN(C)CC4)c(OC)cc23)c(Cl)cc1Cl [Bosutinib] | 14.6 | 3.7 | 6.4 | 13.2 | 14.1 | 9.2 | 7.55 | 6.6 | 9.3 | 5.2
Nc1ncnc2c1nc(N)n2[C@@H]1O[C@H](CO)[C@@H](O)[C@H]1O [8-amino-adenosine] | 27.5 | 20.5 | 18.6 | 18.6 | 21.7 | 20.2 | 18.8 | 16 | 18.3 | 20.3
CO[C@H]1C[C@@H]2CC[C@@H](C)[C@@](O)(O2)C(=O)C(=O)N2CCCC[C@H]2C(=O)O[C@H]([C@H](C)C[C@@H]2CC[C@@H](OP(C)(C)=O)[C@H](OC)C2)CC(=O)[C@H](C)/C=C(\C)[C@@H](O)[C@@H](OC)C(=O)[C@H](C)C[C@H](C)/C=C/C=C/C=C/1C [Ridaforolimus] | 11.1 | 10.3 | 9.3 | 11.8 | 13.8 | 4.2 | 0 | 3.4 | 4.5 | 5.7
COc1c(OCCCN2CCOCC2)ccc2c1N=C(NC(=O)c1cnc(N)nc1)N1CCN=C21 [Copanlisib] | 17.4 | 11.7 | 5.2 | 16.8 | 19.6 | 10.5 | 3.1 | 6.6 | 8.5 | 12.8
CC(=O)Nc1cccc(-n2c(=O)n(C3CC3)c(=O)c3c(Nc4ccc(I)cc4F)n(C)c(=O)c(C)c32)c1 [Trametinib] | 15.1 | 12.4 | 11.6 | 12 | 14 | 9.9 | 0 | 0.9 | 16.6 | 15.9

Compound | drug sensitivity score [1] | drug sensitivity score [2] | drug sensitivity score [3] | drug sensitivity score [4] | drug sensitivity score [5] | drug sensitivity score [6] | drug sensitivity score [7] | drug sensitivity score [8] | drug sensitivity score [9] | drug sensitivity score [10]
CN[C@@H](C)C(=O)N[C@H]1CN(C(=O)CC(C)C)CC[C@H]2CC[C@@H](C(=O)NC(c3ccccc3)c3ccccc3)N2C1=O [AT-406] | 0 | 1.5 | 0 | 5 | 0.3 | 0 | 24.9 | 5.4 | 1.5 | 8.8
COc1cc(Nc2ncc3c(n2)-c2ccc(Cl)cc2C(c2c(F)cccc2OC)=NC3)ccc1C(=O)O [Alisertib] | 4.8 | 0.9 | 2.2 | 2.3 | 5.8 | 2.3 | 1 | 0.7 | 4.7 | 1.3
Cc1nn(C)c(COc2ccc(N3CCN(S(=O)(=O)N(C)C)CC3)cc2)c1-c1cccc2c(CCCOc3cccc4ccccc34)c(C(=O)O)n(CCN3CCOCC3)c12 | 6 | 5.6 | 8.2 | 4.7 | 7.5 | 5.9 | 6.7 | 7.6 | 5.9 | 7
C[C@@H](Oc1cc(-n2cnc3ccc(CN4CCN(C)CC4)cc32)sc1C(N)=O)c1ccccc1C(F)(F)F | 8.2 | 7.4 | 11.5 | 11.9 | 9.1 | 12.6 | 6.1 | 3.9 | 7.3 | 5.3
COc1ccccc1S(=O)(=O)Nc1ccc2c(c1)CN(C)C(=O)N2 [PFI-1] | 5.3 | 1.1 | 3.6 | 5.7 | 7.1 | 3.2 | 3.2 | 1.2 | 2.9 | 3.6
CN1CCN(c2cc(C(=O)Nc3ccc4c(c3)-c3c(c(C(N)=O)nn3-c3ccc(F)cc3)CC4)c(Cl)cn2)CC1 [PHA 408] | 4 | 0.6 | 4.6 | 11 | 6.8 | 4.8 | 9 | 4 | 5.2 | 4.6
CCS(=O)(=O)N1CCN(c2ccc(Nc3ncc(C(N)=O)c(NC4CC4)n3)cc2)CC1 [Cerdulatinib] | 0 | 4 | 0 | 10.6 | 0 | 0 | 3.3 | 3.4 | 0 | 0
CC1(COc2ccc3c(c2)ncn3-c2ccc3cccc(N4CCC(N)CC4)c3n2)COC1 [Crenolanib] | 6.1 | 4.3 | 5 | 4.8 | 4.6 | 3 | 9.25 | 4.4 | 4.4 | 4.4
C#Cc1cccc(Nc2ncnc3cc4c(cc23)OCCOCCOCCO4)c1 [Icotinib] | 11.2 | 9 | 1.8 | 7.1 | 10.7 | 8 | 1 | 2.1 | 9.7 | 3.4
FC(F)c1nc2ccccc2n1-c1nc(N2CCOCC2)nc(N2CCOCC2)n1 [ZSTK474] | 16.9 | 15.6 | 5.6 | 16.8 | 18.4 | 11.8 | 4.65 | 9.8 | 10.6 | 12.5
CCN(CC)CCCC(C)Nc1ccnc2cc(Cl)ccc12 (stereo not given) [Chloroquine] | 10.1 | 7.1 | 5.6 | 7 | 9.4 | 6 | 10.2 | 7.6 | 7.8 | 7.2
O=C(NOCCO)c1ccc2cncn2c1Nc1ccc(I)cc1F [GDC-0623] | 7.3 | 9.6 | 7.2 | 11.2 | 5.3 | 4 | 1.35 | 0.1 | 1.3 | 6.1
CCS(=O)(=O)c1cccc(-c2cc(C(=O)NC3CCN(C)CC3)c(C)c3[nH]c4ncc(C)cc4c23)c1 [TAK-901] | 1 | 2.2 | 1.2 | 5.7 | 5.3 | 7 | 1.15 | 0 | 1.2 | 2
CN(C)Cc1ccc(S(=O)(=O)n2ccc(/C=C/C(=O)NO)c2)cc1 [Resminostat] | 9.7 | 3.4 | 6.8 | 7.7 | 7.4 | 3.3 | 6.3 | 8.2 | 8.1 | 6.8
CO[C@H]1C[C@@H]2CC[C@@H](C)[C@@](O)(O2)C(=O)C(=O)N2CCCC[C@H]2C(=O)O[C@H]([C@H](C)C[C@@H]2CC[C@@H](OC(=O)C(C)(CO)CO)[C@H](OC)C2)CC(=O)[C@H](C)/C=C(\C)[C@@H](O)[C@@H](OC)C(=O)[C@H](C)C[C@H](C)/C=C/C=C/C=C/1C [Temsirolimus] | 9.5 | 13.6 | 9.7 | 13.1 | 16.5 | 3.5 | 0.5 | 8.9 | 5.6 | 2.5
CNC(=O)c1nn(C)c2c1C(C)(C)Cc1cnc(Nc3ccc(N4CCN(C)CC4)cc3)nc1-2 [Milciclib] | 12.5 | 8.5 | 6.2 | 13.1 | 15.1 | 7.6 | 8.25 | 6.3 | 8.6 | 6.8
C=CC(=O)N1CCC(Oc2cc3c(Nc4ccc(Cl)c(Cl)c4F)ncnc3cc2OC)CC1 [Poziotinib] | 24.2 | 10.5 | 0.8 | 20.3 | 21.8 | 16.7 | 2.1 | 6.5 | 24.6 | 6.1

From the supplement of paper PMC9938120
